# Source: the supplement of paper PMC9663587
# Legend:
# YKL-5-124 = compound: C=CC(=O)Nc1ccc(C(=O)Nc2[nH]nc3c2CN(C(=O)N[C@H](CN(C)C)c2ccccc2)C3(C)C)cc1 [YKL-5-124]
# [1] = compound: CC(=O)Nc1cccc(-n2c(=O)n(C3CC3)c(=O)c3c(Nc4ccc(I)cc4F)n(C)c(=O)c(C)c32)c1
# Bleomycin = compound: CC1=C(N=C(N=C1N)[C@H](CC(=O)N)NC[C@@H](C(=O)N)N)C(=O)N[C@@H]([C@H](C2=CN=CN2)OC3C(C(C(C(O3)CO)O)O)OC4C(C(C(C(O4)CO)O)OC(=O)N)O)C(=O)N[C@H](C)[C@H]([C@H](C)C(=O)N[C@@H]([C@@H](C)O)C(=O)NCCC5=NC(=CS5)C6=NC(=CS6)C(=O)NCCC[S+](C)C)O [Bleomycin]; conditions: main component drawn
# TGX221 = compound: CC1=CN2C(=O)C=C(N=C2C(=C1)C(C)NC3=CC=CC=C3)N4CCOCC4 [TGX221]
# [2] = compound: CCN1CCN(Cc2ccc(Nc3ncc(F)c(-c4cc(F)c5nc(C)n(C(C)C)c5c4)n3)nc2)CC1
# Topotecan = compound: CC[C@@]1(O)C(=O)OCc2c1cc1n(c2=O)Cc2cc3c(CN(C)C)c(O)ccc3nc2-1 [Topotecan]
# THZ531 = compound: CN(C)C/C=C/C(=O)Nc1ccc(C(=O)N2CCC[C@@H](Nc3ncc(Cl)c(-c4c[nH]c5ccccc45)n3)C2)cc1 [THZ531]
# Everolimus = compound: CO[C@H]1C[C@@H]2CC[C@@H](C)[C@@](O)(O2)C(=O)C(=O)N2CCCC[C@H]2C(=O)O[C@H]([C@H](C)C[C@@H]2CC[C@@H](OCCO)[C@H](OC)C2)CC(=O)[C@H](C)/C=C(\C)[C@@H](O)[C@@H](OC)C(=O)[C@H](C)C[C@H](C)/C=C/C=C/C=C/1C [Everolimus]
# Etoposide = compound: COc1cc([C@@H]2c3cc4c(cc3[C@@H](O[C@@H]3O[C@@H]5CO[C@@H](C)O[C@H]5[C@H](O)[C@H]3O)[C@H]3COC(=O)[C@H]23)OCO4)cc(OC)c1O [Etoposide]
# AZD6738 = compound: C[C@@H]1COCCN1c1cc(C2([S@](C)(=N)=O)CC2)nc(-c2cc[nH]c3nccc2-3)n1 [AZD6738]
# Cisplatin = compound: N.N.Cl[Pt]Cl [Cisplatin]
# FMF-03-145-1 = compound: CCC(=O)Nc1ccc(C(=O)Nc2ccc(Nc3ncc4c(n3)N(C)c3ccc(C)cc3C(=O)N4C)cc2)cc1 [FMF-03-145-1]
# [3] = compound: COc1cccc(OCCCN)c1-c1cc(Nc2cnc(C#N)cn2)n[nH]1
# 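Note: breast cancer and non-malignant breast epithelial cell lines, Deep Dye Drop or Dye Drop imaging, nine half-log doses, GR normalized to time-zero plates and DMSO-only controls.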
Cell Line,"GR50, 72 h (YKL-5-124) [µM]","GR50, 72 h [1] [µM]","GR50, 72 h (Bleomycin) [µM]","GR50, 72 h (TGX221) [µM]","GR50, 72 h [2] [µM]","GR50, 72 h (Topotecan) [µM]","GR50, 72 h (THZ531) [µM]","GR50, 72 h (Everolimus) [µM]","GR50, 72 h (Etoposide) [µM]","GR50, 72 h (AZD6738) [µM]","GR50, 72 h (Cisplatin) [µM]","GR50, 72 h (FMF-03-145-1) [µM]","GR50, 72 h [3] [µM]"
T47D,< 0.001,> 1,0.199,> 10,0.00428,0.00523,0.114,< 0.001,0.0417,> 10,1.57,–,–
SUM185PE,0.0819,> 1,–,> 10,9.37,–,0.136,> 10,–,> 10,–,–,–
EFM19,< 0.001,> 1,–,> 10,0.025,–,0.466,< 0.001,–,> 10,–,0.00827,–
MDAMB175VII,–,0.00195,–,> 10,0.00292,–,0.0409,< 0.001,–,8.53,–,–,0.0266
HCC1569,–,> 1,–,> 10,4.64,–,0.0461,> 10,–,3.49,–,–,0.00228
HCC38,< 0.001,0.22,0.199,> 10,0.0446,0.00681,0.177,–,0.334,2,0.993,0.00507,0.000505
HCC1428,–,> 1,4.26,> 10,0.00979,0.0106,–,0.031,0.214,–,0.901,–,–
184A1,< 0.001,0.00069,–,> 10,0.0256,–,0.269,> 10,–,> 10,–,–,–
BT20,0.0135,> 1,0.488,> 10,0.0613,0.0123,> 1,–,0.301,5.85,0.791,–,0.000944
SUM1315,0.0168,0.0211,0.214,> 10,0.0493,0.0118,0.388,–,0.29,4.46,1.28,0.0047,0.000483
CAL120,0.00898,0.0468,1.69,> 10,0.247,0.00749,0.15,> 10,0.48,> 10,2.93,0.00643,0.000952
HCC202,–,> 1,–,> 10,2.43,–,0.0588,–,–,8.72,–,–,0.00549
MDAMB453,< 0.001,0.0339,1.31,> 10,0.00577,0.00669,0.0236,–,0.383,4.74,3.4,0.00648,0.0005
CAL851,–,0.0132,0.453,> 10,1.3,0.0158,0.0715,0.00155,0.416,4.62,1.03,0.00449,0.000351
SUM44PE,–,> 1,–,> 10,0.0473,–,0.0499,< 0.001,–,0.549,–,–,0.000342
MCF7,< 0.001,> 1,0.0772,> 10,0.0236,0.00604,0.061,0.00269,0.135,3.05,9.32,–,–
PDX1328,–,> 1,4,> 10,0.0288,0.00592,0.0399,–,0.805,–,0.784,–,0.000974
HCC1187,–,> 1,–,–,–,–,0.0529,> 10,–,1.21,–,–,–
HTERT_HME1,< 0.001,0.00573,0.207,> 10,0.199,0.00727,0.22,–,0.138,5.78,1.12,0.00584,0.000593
CAMA1,–,> 1,1.69,> 10,0.00786,0.00321,0.139,–,0.155,8.16,0.919,0.00649,0.00063
UACC812,< 0.001,0.00179,–,0.0345,0.00485,–,> 1,–,–,5.82,–,0.00186,–
PDXHCI002,< 0.001,> 1,1.16,> 10,0.0484,0.00665,0.0493,> 10,0.182,> 10,1.73,–,–
PDX1258,0.00166,> 1,0.783,> 10,0.674,0.0135,0.0492,> 10,0.317,3.53,2.56,–,0.000103
BT549,0.00293,> 1,0.18,> 10,3.97,0.00847,0.302,> 10,0.181,3.97,1.02,–,2.27e-05
MDAMB157,–,0.111,1.29,> 10,1.8,0.00595,–,> 10,0.112,–,5.24,–,–
MDAMB415,0.00409,0.278,–,1.81,0.00897,–,0.0474,–,–,> 10,–,–,–
ZR7530,–,0.0361,–,> 10,0.00886,–,0.0583,–,–,> 10,–,–,–
HS578T,< 0.001,0.00636,0.252,> 10,0.0776,0.00498,0.0496,0.00554,0.413,5.26,1.54,–,–
